Source: patent publication US4401660A, “Ester derivatives of 5-O-mycaminosyl tylonolide and method of using same” (Eli Lilly and Company, priority 1981, dated 1983)

Assays:
[1] = tested on: Haemophilus influenzae Holt; test: MIC, standard agar-dilution assay (Table II); type: cell-based; design: unit not given here; conditions: ampicillin-sensitive strain
Experimental: (§1) The MIC's in Table II were determined by standard agar-dilution assays. The MIC's in Table III were obtained using a conventional broth-dilution microtiter test.

[2] = tested on: Haemophilus influenzae R252; test: MIC, standard agar-dilution assay (Table II); type: cell-based; design: unit not given here; conditions: Haemophilus influenzae R252, ampicillin-resistant strain
Experimental: as §1

[3] = tested on: Staphylococcus aureus S13E; test: MIC, standard agar-dilution assay (Table II); type: cell-based; design: unit not given here
Experimental: as §1

[4] = tested on: Staphylococcus aureus V41; test: MIC, standard agar-dilution assay (Table II); type: cell-based; design: unit not given here; conditions: Staphylococcus aureus V41, penicillin-resistant strain
Experimental: as §1

[5] = tested on: Staphylococcus aureus X1.1; test: MIC, standard agar-dilution assay (Table II); type: cell-based; design: unit not given here
Experimental: as §1

[6] = tested on: Staphylococcus aureus X400; test: MIC, standard agar-dilution assay (Table II); type: cell-based; design: unit not given here; conditions: Staphylococcus aureus X400, methicillin-resistant strain
Experimental: as §1

[7] = tested on: Staphylococcus epidermidis EPI1; test: MIC, standard agar-dilution assay (Table II); type: cell-based; design: unit not given here
Experimental: as §1

[8] = tested on: Staphylococcus epidermidis EPI2; test: MIC, standard agar-dilution assay (Table II); type: cell-based; design: unit not given here
Experimental: as §1

[9] = tested on: Streptococcus Group D 9960; test: MIC, standard agar-dilution assay (Table II); type: cell-based; design: unit not given here
Experimental: as §1

[10] = tested on: Streptococcus Group D X66; test: MIC, standard agar-dilution assay (Table II); type: cell-based; design: unit not given here
Experimental: as §1

[11] = tested on: Streptococcus pneumoniae Park I; test: MIC, standard agar-dilution assay (Table II); type: cell-based; design: unit not given here
Experimental: as §1

[12] = tested on: Streptococcus pyogenes C203; test: MIC, standard agar-dilution assay (Table II); type: cell-based; design: unit not given here
Experimental: as §1

Mycoplasma gallisepticum = test: MIC, broth-dilution microtiter test (Table III); type: cell-based; design: unit not given here
Experimental: as §1

Mycoplasma hyorhinis = test: MIC, broth-dilution microtiter test (Table III); type: cell-based; design: unit not given here
Experimental: as §1

Mycoplasma synoviae = test: MIC, broth-dilution microtiter test (Table III); type: cell-based; design: unit not given here
Experimental: as §1

[13] = tested on: Pasteurella haemolytica 22C; test: MIC, broth-dilution microtiter test (Table III); type: cell-based; design: unit not given here
Experimental: as §1

[14] = tested on: Pasteurella haemolytica 23C; test: MIC, broth-dilution microtiter test (Table III); type: cell-based; design: unit not given here
Experimental: as §1

[15] = tested on: Pasteurella haemolytica 41D; test: MIC, broth-dilution microtiter test (Table III); type: cell-based; design: unit not given here
Experimental: as §1

[16] = tested on: Pasteurella multocida 17E; test: MIC, broth-dilution microtiter test (Table III); type: cell-based; design: unit not given here; conditions: bovine isolate
Experimental: as §1

[17] = tested on: Pasteurella multocida 22A; test: MIC, broth-dilution microtiter test (Table III); type: cell-based; design: unit not given here
Experimental: as §1

[18] = tested on: Pasteurella multocida 40G; test: MIC, broth-dilution microtiter test (Table III); type: cell-based; design: unit not given here
Experimental: as §1

[19] = tested on: Pasteurella multocida 60A; test: MIC, broth-dilution microtiter test (Table III); type: cell-based; design: unit not given here; conditions: avian isolate
Experimental: as §1

[20] = tested on: Pasteurella multocida 68C; test: MIC, broth-dilution microtiter test (Table III); type: cell-based; design: unit not given here
Experimental: as §1

Staphylococcus aureus = test: MIC, broth-dilution microtiter test (Table III); type: cell-based; design: unit not given here
Experimental: as §1

Streptococcus sp. 80 = test: MIC, broth-dilution microtiter test (Table III); type: cell-based; design: unit not given here
Experimental: as §1

Pasteurella multocida = test: Treatment of Pasteurella infections in chicks (Table V); type: in vivo, one-day-old chicks; conditions: Pasteurella multocida, sc, 4 h; 30 mg/kg by subcutaneous injection one and four hours post challenge; read-out: Deaths in Treated Chicks/Number Treated (converted)
Procedure, shortened: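 One-day-old chicks challenged subcutaneously with avian P. multocida (0.1 ml of 10^-3 dilution of 20-hour tryptose broth culture). Esters given at 30 mg/kg subcutaneously at 1 and 4 hours post challenge. Untreated infected controls, ten per group.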

Row | SMILES | minimal inhibitory concentration (MIC) [1] | minimal inhibitory concentration (MIC) [2] | minimal inhibitory concentration (MIC) [3] | minimal inhibitory concentration (MIC) [4] | minimal inhibitory concentration (MIC) [5] | minimal inhibitory concentration (MIC) [6] | minimal inhibitory concentration (MIC) [7] | minimal inhibitory concentration (MIC) [8] | minimal inhibitory concentration (MIC) [9] | minimal inhibitory concentration (MIC) [10] | minimal inhibitory concentration (MIC) [11] | minimal inhibitory concentration (MIC) [12] | minimal inhibitory concentration (MIC) (Mycoplasma gallisepticum) | minimal inhibitory concentration (MIC) (Mycoplasma hyorhinis) | minimal inhibitory concentration (MIC) (Mycoplasma synoviae) | minimal inhibitory concentration (MIC) [13] | minimal inhibitory concentration (MIC) [14] | minimal inhibitory concentration (MIC) [15] | minimal inhibitory concentration (MIC) [16] | minimal inhibitory concentration (MIC) [17] | further results
1 | CCC1OC(=O)CC(O)C(C)C(OC2OC(C)C(O)C(N(C)C)C2O)C(CC=O)CC(C)C(=O)C=CC(C)=CC1COS(=O)(=O)c1ccc(NC(C)=O)cc1 (stereo not shown) [Compound 56, 23-O-(p-Acetamidobenzenesulfonyl)-OMT] | 2 | 2 | 1 | 2 | 1 | 2 | 0.5 | 2 | 1 | 1 | 0.06 | 0.125 | 0.39 | 12.5 | 0.78 | 6.25 | 6.25 | 6.25 | 3.12 | 6.25 | minimal inhibitory concentration (MIC) [18]: 6.25; minimal inhibitory concentration (MIC) [19]: 3.12; minimal inhibitory concentration (MIC) [20]: 3.12; minimal inhibitory concentration (MIC) (Staphylococcus aureus): 0.78; minimal inhibitory concentration (MIC) (Streptococcus sp. 80): 0.195; mortality at 30 mg/kg (Pasteurella multocida): 100%
2 | CCC1OC(=O)CC(O)C(C)C(OC2OC(C)C(O)C(N(C)C)C2OC(C)=O)C(CC=O)CC(C)C(=O)C=CC(C)=CC1COC(=O)CCCC(=O)OC (stereo not shown) [Compound 71] | 2 | 2 | 0.25 | 0.25 | 0.25 | 0.25 | 0.25 | 0.25 | 0.5 | 0.25 | 0.03 | 0.25 | 0.195 | 12.5 | 0.78 | 50 | 12.5 | 12.5 | 6.25 | 3.12 | minimal inhibitory concentration (MIC) [18]: 3.12; minimal inhibitory concentration (MIC) [19]: 6.25; minimal inhibitory concentration (MIC) [20]: 6.25; minimal inhibitory concentration (MIC) (Staphylococcus aureus): 0.78; minimal inhibitory concentration (MIC) (Streptococcus sp. 80): 1.56; mortality at 30 mg/kg (Pasteurella multocida): 60%
3 | CCC1OC(=O)CC(O)C(C)C(OC2OC(C)C(OC(C)=O)C(N(C)C)C2OC(C)=O)C(CC=O)CC(C)C(=O)C=CC(C)=CC1COS(=O)(=O)c1ccc(C)cc1 (stereo not shown) [Compound 55] | 1 | 1 | 0.25 | 0.125 | 0.125 | 0.25 | 0.25 | 0.25 | 0.125 | 0.125 | 0.03 | 0.06 | 0.05 | 0.78 | 0.05 | 3.12 | 3.12 | 6.25 | 3.12 | 6.25 | minimal inhibitory concentration (MIC) [18]: 6.25; minimal inhibitory concentration (MIC) [19]: 3.12; minimal inhibitory concentration (MIC) [20]: 3.12; minimal inhibitory concentration (MIC) (Staphylococcus aureus): 0.195; minimal inhibitory concentration (MIC) (Streptococcus sp. 80): 0.05; mortality at 30 mg/kg (Pasteurella multocida): 100%
4 | CCC(=O)OCC1C=C(C)C=CC(=O)C(C)CC(CC=O)C(OC2OC(C)C(O)C(N(C)C)C2OC(=O)CC)C(C)C(O)CC(=O)OC1CC (stereo not shown) [Compound 10, 2',23-Di-O-Propionyl-OMT] | 2 | 8 | 0.5 | 0.5 | 0.25 | 0.5 | 0.25 | 0.25 | 0.5 | 0.5 | 0.125 | 0.25 | 0.097 | 0.78 | 0.097 | 6.25 | 6.25 | 6.25 | 1.56 | 6.25 | minimal inhibitory concentration (MIC) [18]: 1.56; minimal inhibitory concentration (MIC) [19]: 1.56; minimal inhibitory concentration (MIC) [20]: 1.56; minimal inhibitory concentration (MIC) (Staphylococcus aureus): 0.39; minimal inhibitory concentration (MIC) (Streptococcus sp. 80): 0.195; mortality at 30 mg/kg (Pasteurella multocida): 10%
5 | CCC1OC(=O)CC(O)C(C)C(OC2OC(C)C(O)C(N(C)C)C2OC(C)=O)C(CC=O)CC(C)C(=O)C=CC(C)=CC1COC(=O)NCc1ccccc1 (stereo not shown) [Compound 75] | 0.5 | 1 | 0.125 | 0.25 | 0.125 | 0.25 | 0.125 | 0.125 | 0.125 | 0.25 | 0.03 | 0.125 | 0.048 | 0.78 | < 0.048 | 6.25 | 3.12 | 6.25 | 6.25 | > 50 | minimal inhibitory concentration (MIC) [18]: 12.5; minimal inhibitory concentration (MIC) [19]: 6.25; minimal inhibitory concentration (MIC) [20]: 3.12; minimal inhibitory concentration (MIC) (Staphylococcus aureus): 0.78; minimal inhibitory concentration (MIC) (Streptococcus sp. 80): 0.39; mortality at 30 mg/kg (Pasteurella multocida): 100%
